Results as given in publication PMC9229919, “4-Aminoquinoline-Based Adamantanes as Potential Anticholinesterase Agents in Symptomatic Treatment of Alzheimer’s Disease” (Pharmaceutics, 2022).
Like-named read-outs stand apart in the source and are kept apart here.

Columns and labels:
[1] = biological target: T1, purified human BChE (Homo sapiens, UniProt P06276); assay: biochemical; format: biochemical
T1 construct: possibly also a gift of Dr Florian Nachon (the sentence is ambiguous)
Method: (§1) Acetylthiocholine (ATCh) and 5,5′-dithiobis(2-nitrobenzoic acid) (DTNB) were purchased from Sigma-Aldrich, St. Louis, MO, USA. ATCh was dissolved in water and DTNB in 0.1 M sodium phosphate buffer (pH 7.4). The 4-aminoquinilines were dissolved in DMSO and all further dilutions were made in water.
(§2) The sources of AChE and BChE were purified human BChE and recombinant human AChE that was kindly provided by Dr Florian Nachon (Département de Toxicologie, Armed Forces Biomedical Research Institute, Brétigny-sur-Orge, France). […] The enzymes were diluted in sodium phosphate buffer 0.1 M (pH 7.4) containing 0.1% BSA.
(§3) Enzyme activities were measured spectrophotometrically using a slightly modified Ellman method, as described earlier. […] At least three inhibitor concentrations for each substrate concentration were used in at least three experiments. The apparent inhibition constant (Ki,app) was calculated using the Hunter–Downs Equation and linear regression analysis:(1) Ki,app=vi·i/v0−vi=Ki+Ki/KS·s where the y-intercept determines the enzyme-inhibitor dissociation constant (Ki), while the x-intercept determines the enzyme-substrate dissociation constant, KS.
(§4) The Hunter–Downs Equation was used under the assumption that the substrate, due to relatively low concentrations used in experiments, would bind only to the catalytic site of the enzymes, while the inhibitors would bind to both CAS and/or PAs. This allowed the type of inhibition to be determined from Ki,app vs. substrate concentration ([S]) dependency on Hunter–Downs plot.
(§5) The final content of DMSO in the measurements was up to 0.2%. […] The measurements were performed at 25 °C on a Tecan Infinite M200Pro plate reader (Tecan Austria GmbH, Salzburg, Austria).

[2] = biological target: T2, recombinant human AChE (Homo sapiens, UniProt P22303); assay: biochemical; format: biochemical; settings: for IS: IS = Ki(BChE)/Ki(AChE), IS > 1 selective to AChE
T2 construct: gift of Dr Florian Nachon (Armed Forces Biomedical Research Institute, Brétigny-sur-Orge, France)
Method: as §1, §2, §3, §4, §5

[3] = Ferric reducing antioxidant power (FRAP) assay; settings: for FRAP: mean ± standard error of three experiments;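 as to FRAP: expressed as µM Fe2+ equivalents from an FeSO4·7H2O standard curve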
Method: . All the chemicals were purchased from Sigma-Aldrich (St. Louis, MO, USA), except for tripyridyltriazine (TPTZ) (Fluka, Buchs, Switzerland) and FeCl3 (Kemika, Zagreb, Croatia). The FRAP assay was assessed according to Benzie and Strain [53] with slight procedure adjustments for 96-well microplates. The method is based on the reduction of the ferric-tripyridyltriazine (Fe^3+-TPTZ) complex to ferrous tripyridyltriazine (Fe^2+-TPTZ) by the action of electron-donating compounds at a low pH. Briefly, the FRAP reagent was prepared by mixing acetate buffer (300 mM, pH 3.6), a solution of 10 mM TPTZ in 40 mM HCl, and 20 mM FeCl3 at 10:1:1 (v/v/v). Then, 240 μL of FRAP reagent and 10 μL of sample solution were added to a 96-well plate and incubated at 37 °C for 60 min. The absorbance was measured at 593 nm using a microplate reader (Infinite M200PRO, Tecan Austria GmbH, Salzburg, Austria) against a blank. The reducing capacity was determined for 10 and 100 µM compound concentrations. […]. All measurements were performed in three independent experiments. FRAP values, denominating the reduction of ferric-tripyridyltriazine (Fe^3+-TPTZ) to ferrous tripyridyltriazine (Fe^2+-TPTZ) by 4-aminoquinolines were calculated based on a standard curve obtained using […].

[4] = Reverse-phase thin-layer chromatographic lipophilicity (RF, RM0); format: physicochemical; settings: for RM0: intercept of RM = RM0 + bC; for b: slope of RM = RM0 + bC; for RF, Methanol/Water/Hydrochloric acid (conc.), mobile phase I: I = 90%MeOH/5%H2O/5%HCl; for RF, Dioxane/Water/Hydrochloric acid (conc.), mobile phase II: II = 80%Dioxane/15%H2O/5%HCl; for RF, Methanol/Water/Hydrochloric acid (conc.), mobile phase II: II = 85%MeOH/10%H2O/5%HCl; for RF, Acetone/Water/Hydrochloric acid (conc.), mobile phase III: III = 70%AC/25%H2O/5%HCl; for RF, Dioxane/Water/Hydrochloric acid (conc.), mobile phase III: III = 70%Dioxane/25%H2O/5%HCl; for RF, Methanol/Water/Hydrochloric acid (conc.), mobile phase III: III = 80%MeOH/15%H2O/5%HCl; for RF, Dioxane/Water/Hydrochloric acid (conc.), mobile phase IV: IV = 60%Dioxane/35%H2O/5%HCl; for RF, Acetone/Water/Hydrochloric acid (conc.), mobile phase IV: IV = 65%AC/30%H2O/5%HCl; for RF, Methanol/Water/Hydrochloric acid (conc.), mobile phase IV: IV = 75%MeOH/20%H2O/5%HCl; for RF, Acetone/Water/Hydrochloric acid (conc.), mobile phase IX: IX = 40%AC/55%H2O/5%HCl; for RF, Methanol/Water/Hydrochloric acid (conc.), mobile phase IX: IX = 50%MeOH/45%H2O/5%HCl; for RF, Dioxane/Water/Hydrochloric acid (conc.), mobile phase V: V = 50%Dioxane/45%H2O/5%HCl; for RF, Acetone/Water/Hydrochloric acid (conc.), mobile phase V: V = 60%AC/35%H2O/5%HCl; for RF, Methanol/Water/Hydrochloric acid (conc.), mobile phase V: V = 70%MeOH/25%H2O/5%HCl; for RF, Dioxane/Water/Hydrochloric acid (conc.), mobile phase VI: VI = 40%Dioxane/55%H2O/5%HCl; for RF, Acetone/Water/Hydrochloric acid (conc.), mobile phase VI: VI = 55%AC/40%H2O/5%HCl; for RF, Methanol/Water/Hydrochloric acid (conc.), mobile phase VI: VI = 65%MeOH/30%H2O/5%HCl; for RF, Acetone/Water/Hydrochloric acid (conc.), mobile phase VII: VII = 50%AC/45%H2O/5%HCl; for RF, Methanol/Water/Hydrochloric acid (conc.), mobile phase VII: VII = 60%MeOH/35%H2O/5%HCl; for RF, Acetone/Water/Hydrochloric acid (conc.), mobile phase VIII: VIII = 45%AC/50%H2O/5%HCl; for RF, Methanol/Water/Hydrochloric acid (conc.), mobile phase VIII: VIII = 55%MeOH/40%H2O/5%HCl
Method: Chromatographic determination of lipophilicity
Merck, Darmstadt, Germany). The mobile phase contained organic modifier (methanol, acetone or dioxane), water and hydrochloric acid.
Methanol was varied in the range […]
with an increment of 10%. […]
before chromatogram development. The solvent developing distance was 4.5 cm. Detection of […]
All experiments were performed at ambient temperature (22±2 °C). Retention parameters were calculated as previously described. […]

[5] = ± standard error, 25 °C, ATCh substrate, read-out: Ki BChE
[6] = ± standard error, 25 °C, ATCh substrate, read-out: Ki AChE
[7] = Acetone/Water/Hydrochloric acid (conc.)
[8] = Dioxane/Water/Hydrochloric acid (conc.)
[9] = Methanol/Water/Hydrochloric acid (conc.)
[10] = logarithm of Ki in µM, BChE, dependent variable of the QSAR model, read-out: Y Measured 2 log(ki)Bche, log (Ki/µM BChE) (converted)
[11] = log (Ki/µM AChE), read-out: Y Measured 1 log(ki)Ache (converted)

T2 sequence (P22303 32-614): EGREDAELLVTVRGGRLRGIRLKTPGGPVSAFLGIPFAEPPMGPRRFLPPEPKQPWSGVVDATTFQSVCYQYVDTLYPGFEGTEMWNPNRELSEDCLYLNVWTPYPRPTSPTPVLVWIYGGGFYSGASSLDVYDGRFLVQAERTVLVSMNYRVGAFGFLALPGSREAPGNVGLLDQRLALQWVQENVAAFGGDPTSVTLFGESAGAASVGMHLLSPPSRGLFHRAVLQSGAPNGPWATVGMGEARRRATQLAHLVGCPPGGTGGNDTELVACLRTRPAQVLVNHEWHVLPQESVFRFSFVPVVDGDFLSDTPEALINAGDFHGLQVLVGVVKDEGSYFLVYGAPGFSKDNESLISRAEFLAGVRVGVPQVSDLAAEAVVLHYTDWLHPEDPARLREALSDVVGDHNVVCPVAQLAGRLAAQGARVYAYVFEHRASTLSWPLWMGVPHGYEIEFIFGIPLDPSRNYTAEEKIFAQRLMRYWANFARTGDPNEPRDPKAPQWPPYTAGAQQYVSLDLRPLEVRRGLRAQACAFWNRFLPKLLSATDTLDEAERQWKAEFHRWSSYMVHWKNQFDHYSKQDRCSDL
T1 sequence (P06276 29-602): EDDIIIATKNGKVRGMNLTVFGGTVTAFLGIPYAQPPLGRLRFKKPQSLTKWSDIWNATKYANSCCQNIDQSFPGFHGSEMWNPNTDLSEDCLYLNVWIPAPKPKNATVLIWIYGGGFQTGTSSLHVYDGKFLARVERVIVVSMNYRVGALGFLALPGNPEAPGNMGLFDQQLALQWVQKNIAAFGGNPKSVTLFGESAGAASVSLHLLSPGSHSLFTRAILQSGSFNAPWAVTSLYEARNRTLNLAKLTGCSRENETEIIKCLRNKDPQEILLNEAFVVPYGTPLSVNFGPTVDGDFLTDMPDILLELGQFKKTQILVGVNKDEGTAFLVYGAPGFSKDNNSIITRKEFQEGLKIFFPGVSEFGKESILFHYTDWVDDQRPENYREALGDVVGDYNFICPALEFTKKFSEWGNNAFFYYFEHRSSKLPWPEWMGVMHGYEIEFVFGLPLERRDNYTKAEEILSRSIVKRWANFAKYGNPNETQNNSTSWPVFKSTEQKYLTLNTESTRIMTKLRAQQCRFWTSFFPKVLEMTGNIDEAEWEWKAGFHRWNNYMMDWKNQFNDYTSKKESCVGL

Structure (SMILES)	Ki [1, 5]	IS [2]	Ki [2, 6]	FRAP ([3]; 10 µM compound)	FRAP ([3]; 100 µM compound)	RM0 [4, 7]	b [4, 7]	RM0 [4, 8]	b [4, 8]	RM0 [4, 9]	b [4, 9]	RF, Methanol/Water/Hydrochloric acid (conc.), mobile phase I ([4]; RP-18 silica)	RF, Dioxane/Water/Hydrochloric acid (conc.), mobile phase II ([4]; RP-18 silica)	RF, Methanol/Water/Hydrochloric acid (conc.), mobile phase II ([4]; RP-18 silica)	RF, Acetone/Water/Hydrochloric acid (conc.), mobile phase III ([4]; RP-18 silica)	RF, Dioxane/Water/Hydrochloric acid (conc.), mobile phase III ([4]; RP-18 silica)	RF, Methanol/Water/Hydrochloric acid (conc.), mobile phase III ([4]; RP-18 silica)	RF, Dioxane/Water/Hydrochloric acid (conc.), mobile phase IV ([4]; RP-18 silica)	RF, Acetone/Water/Hydrochloric acid (conc.), mobile phase IV ([4]; RP-18 silica)	RF, Methanol/Water/Hydrochloric acid (conc.), mobile phase IV ([4]; RP-18 silica)	further results
CC(CCNCCC12CC3CC(CC(C3)C1)C2)Nc1ccnc2cc(Cl)ccc12 (stereo not shown) [Compound 14]	0.15 ± 0.01 µM	0.1	1.9 ± 0.1 µM	7.6 ± 2.3 µM	86 ± 8 µM	2.236	3.396	1.306	2.3979	3.293	4.124	0.67	0.78	0.62	0.53	0.69	0.45	0.66	0.5	0.42	preference for BChE ([1]; BChE over AChE): 10 times; RF, Acetone/Water/Hydrochloric acid (conc.), mobile phase IX ([4]; RP-18 silica): 0.08; RF, Methanol/Water/Hydrochloric acid (conc.), mobile phase IX ([4]; RP-18 silica): 0.03; RF, Dioxane/Water/Hydrochloric acid (conc.), mobile phase V ([4]; RP-18 silica): 0.45; RF, Acetone/Water/Hydrochloric acid (conc.), mobile phase V ([4]; RP-18 silica): 0.38; RF, Methanol/Water/Hydrochloric acid (conc.), mobile phase V ([4]; RP-18 silica): 0.34; RF, Dioxane/Water/Hydrochloric acid (conc.), mobile phase VI ([4]; RP-18 silica): 0.27; RF, Acetone/Water/Hydrochloric acid (conc.), mobile phase VI ([4]; RP-18 silica): 0.33; RF, Methanol/Water/Hydrochloric acid (conc.), mobile phase VI ([4]; RP-18 silica): 0.25; RF, Acetone/Water/Hydrochloric acid (conc.), mobile phase VII ([4]; RP-18 silica): 0.25; RF, Methanol/Water/Hydrochloric acid (conc.), mobile phase VII ([4]; RP-18 silica): 0.16; RF, Acetone/Water/Hydrochloric acid (conc.), mobile phase VIII ([4]; RP-18 silica): 0.21; RF, Methanol/Water/Hydrochloric acid (conc.), mobile phase VIII ([4]; RP-18 silica): 0.1
Clc1ccc2c(NCCN(CCC34CC5CC(CC(C5)C3)C4)CCC34CC5CC(CC(C5)C3)C4)ccnc2c1 [Compound 9]	1.5 ± 0.2 µM	0.3	5.2 ± 0.2 µM	3.4 ± 0.0 µM	29 ± 6 µM	3.559	4.683	2.268	3.179	5.446	5.91	0.44	0.65	0.31	0.33	0.55	0.11	0.42	0.28	0.1	Ki [1, 10]: 1.5 µM; Ki [2, 11]: 5.2 µM; RF, Acetone/Water/Hydrochloric acid (conc.), mobile phase I ([4]; RP-18 silica, I = 80%AC/15%H2O/5%HCl): 0.58; RF, Dioxane/Water/Hydrochloric acid (conc.), mobile phase I ([4]; RP-18 silica, I = 90%Dioxane/5%H2O/5%HCl): 0.75; RF, Acetone/Water/Hydrochloric acid (conc.), mobile phase II ([4]; RP-18 silica, II = 75%AC/20%H2O/5%HCl): 0.5; RF, Acetone/Water/Hydrochloric acid (conc.), mobile phase IX ([4]; RP-18 silica): 0; RF, Methanol/Water/Hydrochloric acid (conc.), mobile phase IX ([4]; RP-18 silica): 0; RF, Dioxane/Water/Hydrochloric acid (conc.), mobile phase V ([4]; RP-18 silica): 0.11; RF, Acetone/Water/Hydrochloric acid (conc.), mobile phase V ([4]; RP-18 silica): 0.13; RF, Methanol/Water/Hydrochloric acid (conc.), mobile phase V ([4]; RP-18 silica): 0.05; RF, Dioxane/Water/Hydrochloric acid (conc.), mobile phase VI ([4]; RP-18 silica): 0; RF, Acetone/Water/Hydrochloric acid (conc.), mobile phase VI ([4]; RP-18 silica): 0.09; RF, Methanol/Water/Hydrochloric acid (conc.), mobile phase VI ([4]; RP-18 silica): 0.01; RF, Acetone/Water/Hydrochloric acid (conc.), mobile phase VII ([4]; RP-18 silica): 0; RF, Methanol/Water/Hydrochloric acid (conc.), mobile phase VII ([4]; RP-18 silica): 0; RF, Acetone/Water/Hydrochloric acid (conc.), mobile phase VIII ([4]; RP-18 silica): 0; RF, Methanol/Water/Hydrochloric acid (conc.), mobile phase VIII ([4]; RP-18 silica): 0
Clc1ccc2c(Nc3ccc(NCC45CC6CC(CC(C6)C4)C5)cc3)ccnc2c1 [Compound 17]	2.5 ± 0.5 µM	0.8	3.3 ± 0.4 µM	53 ± 4 µM	512 ± 117 µM	2.018	3.21	0.9452	1.898	2.643	3.504	0.73	0.75	0.69	0.59	0.71	0.54	0.71	0.54	0.53	decrease in BChE inhibition vs compound 5 [1]: up to 275 times; Ki [1, 10]: 2.5 µM; Ki [2, 11]: 3.3 µM; antioxidant power lower than that of Trolox ([3]; on average): ~10 times; RF, Acetone/Water/Hydrochloric acid (conc.), mobile phase IX ([4]; RP-18 silica): 0.11; RF, Methanol/Water/Hydrochloric acid (conc.), mobile phase IX ([4]; RP-18 silica): 0.09; RF, Dioxane/Water/Hydrochloric acid (conc.), mobile phase V ([4]; RP-18 silica): 0.49; RF, Acetone/Water/Hydrochloric acid (conc.), mobile phase V ([4]; RP-18 silica): 0.44; RF, Methanol/Water/Hydrochloric acid (conc.), mobile phase V ([4]; RP-18 silica): 0.45; RF, Dioxane/Water/Hydrochloric acid (conc.), mobile phase VI ([4]; RP-18 silica): 0.35; RF, Acetone/Water/Hydrochloric acid (conc.), mobile phase VI ([4]; RP-18 silica): 0.39; RF, Methanol/Water/Hydrochloric acid (conc.), mobile phase VI ([4]; RP-18 silica): 0.35; RF, Acetone/Water/Hydrochloric acid (conc.), mobile phase VII ([4]; RP-18 silica): 0.33; RF, Methanol/Water/Hydrochloric acid (conc.), mobile phase VII ([4]; RP-18 silica): 0.24; RF, Acetone/Water/Hydrochloric acid (conc.), mobile phase VIII ([4]; RP-18 silica): 0.25; RF, Methanol/Water/Hydrochloric acid (conc.), mobile phase VIII ([4]; RP-18 silica): 0.15
